The test has as its system HEK-293 cells stably expressing GFP-AR. The experiment in a line: Protac-induced GFP-AR degradation in microinjected HEK-293 cells. It counts as cell-based. To be noted: microinjection, 100 nM.

Experimental: The results are representative of experiments performed on 3 separate days.
The effect of ubistatin A on protein degradation within intact mammalian cells was also evaluated (FIG. 4). Since the negative charge of the molecule was predicted to preclude efficient entry into the cell, compound was introduced by microinjection.
HEK-293 cells stably transfected with a plasmid that expresses GFP-AR were microinjected with 0.2 pl (5-10% of cell volume) of a 200 mM KCl solution containing 10 μM Protac and 50 mg/ml rhodamine dextran (MW 10,000 Da).

Turning to `CC[C@H](C)[C@H](NC(=O)[C@H]([C@@H](C)CC)N(C)C(C)=O)C(=O)N[C@H](C(=O)N[C@@H](CC(C)C)C(=O)[C@@]1(C)CO1)[C@@H](C)O` [epoxomicin], the “block of Protac-X induced loss of GFP-AR” value is listed as “completely blocked”.

Source of the values: patent publication US20050203063A1, “Proteasome pathway inhibitors and related methods” (priority 2003, published 2005).
